US7138361B2, “Herbicidal heterocycles” (E. I. du Pont de Nemours and Company, priority 2000, dated 2006)

Columns and labels:
Assay type in all cases: in vivo
[1] = test system: Surinam grass (Brachiaria decumbens); test: Test B postemergence; conditions: 13 to 15 days
In short: (§1)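 Post-treatment, species sat 13–15 days under greenhouse conditions before visual scoring against controls, 0 (no effect) through 100 (complete control). Application preemergence to sown seeds or postemergence at 1- to 4-leaf stage, using a non-phytotoxic solvent/surfactant formulation.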

[2] = test system: barnyardgrass (Echinochloa crus-galli); test: Test B postemergence; conditions: 13 to 15 days
In short: as §1

[3] = test system: cocklebur (Xanthium strumarium); test: Test B postemergence; conditions: 13 to 15 days
In short: as §1

corn (Zea mays) [4] = test: Test B postemergence; conditions: 13 to 15 days
In short: as §1

[5] = test system: crabgrass (Digitaria sanguinalis); test: Test B postemergence; conditions: 13 to 15 days
In short: as §1

[6] = test system: giant foxtail (Setaria faberii); test: Test B postemergence; conditions: 13 to 15 days
In short: as §1

[7] = test system: morning glory (Ipomoea hederacea); test: Test B postemergence; conditions: 13 to 15 days
In short: as §1

[8] = test system: pigweed (Amaranthus retroflexus); test: Test B postemergence; conditions: 13 to 15 days
In short: as §1

[9] = test system: velvetleaf (Abutilon theophrasti); test: Test B postemergence; conditions: 13 to 15 days
In short: as §1

[10] = test system: wheat (Triticum aestivum); test: Test B postemergence; conditions: 13 to 15 days
In short: as §1

wild oat (Avena fatua) = test: Test B postemergence; conditions: 13 to 15 days
In short: as §1

Nightshade = test: Test C preemergence
Sunflower = test: Test C preemergence; conditions: scale 0 to 100, 0 no effect, 100 complete control
corn (Zea mays) [11] = test: Test C preemergence
In short: (§2)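 Visual injury scores of 0–100, with 100 meaning complete control, were given relative to controls after 12–14 days in the greenhouse. Treatments used a surfactant-containing non-phytotoxic solvent formulation, sprayed on seeded pots preemergence or on 1–4-leaf plants of 2–18 cm postemergence.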

[12] = test system: goosegrass (Eleusine indica); test: Test C preemergence
In short: as §2

[13] = test system: johnsongrass (Sorghum halepense); test: Test C preemergence
In short: as §2

[14] = test system: lambsquarters (Chenopodium album); test: Test C preemergence
In short: as §2

[15] = test system: morningglory (Ipomoea hederacea); test: Test C preemergence
In short: as §2

[16] = test system: velvetleaf (Abutilon theophrasti); test: Test C preemergence
In short: as §2

[17] = test system: yellow nutsedge (Cyperus esculentus); test: Test C preemergence
In short: as §2

[18] = test system: common ragweed (Ambrosia elatior); test: Test C preemergence
In short: as §2

[19] = Rate 125 g/ha, scale 0 (no effect) to 100 (complete control)
[20] = Rate 500 g/ha, scale 0 to 100, 0 is no effect, 100 is complete control
[21] = Rate 62 g/ha; scale 0 to 100, 0 no effect, 100 complete control
[22] = Rate 125 g/ha, scale 0 to 100, 0 no effect, 100 complete control
[23] = Rate 62 g/ha, scale 0 to 100, 0 no effect, 100 complete control
[24] = preemergence, Rate 31 g/ha, scale 0 to 100
[25] = preemergence, Rate 125 g/ha, scale 0 to 100, 0 no effect, 100 complete control
[26] = preemergence, Rate 62 g/ha, scale 0 to 100
[27] = preemergence, Rate 250 g/ha, scale 0 to 100, 0 no effect, 100 complete control

CCC(CC)c1ccn(C2SCN(c3cccc(C(F)(F)F)c3)C2=O)n1 (stereo not shown) [Compound 21]
Plant response rating, Surinam grass [1, 19]: 0
Plant response rating, Surinam grass [1, 20]: 0
Plant response rating, Barnyardgrass [2, 19]: 90
Plant response rating, Barnyardgrass [2, 20]: 100
Plant response rating, Cocklebur [3, 19]: 70
Plant response rating, Cocklebur [3, 20]: 80
Plant response rating, Corn (corn (Zea mays) [4]; [19]): 0
Plant response rating, Corn (corn (Zea mays) [4]; [20]): 0
Plant response rating, Crabgrass [5, 19]: 30
Plant response rating, Crabgrass [5, 20]: 70
Plant response rating, Foxtail, Giant [6, 19]: 20
Plant response rating, Foxtail, Giant [6, 20]: 60
Plant response rating, Morningglory [7, 19]: 70
Plant response rating, Morningglory [7, 20]: 80
Plant response rating, Pigweed [8, 19]: 70
Plant response rating, Pigweed [8, 20]: 90
Plant response rating, Velvetleaf [9, 19]: 20
Plant response rating, Velvetleaf [9, 20]: 60
Plant response rating, Wheat [10, 19]: 0
Plant response rating, Wheat [10, 20]: 0
Plant response rating, Wild Oat (wild oat (Avena fatua); [19]): 0
Plant response rating, Wild Oat (wild oat (Avena fatua); [20]): 0
Plant response rating, Nightshade (Nightshade; Rate 31 g/ha, scale 0 to 100): 80
Plant response rating, Nightshade (Nightshade; [21]): 90
Plant response rating, Nightshade (Nightshade; [22]): 100
Plant response rating, Sunflower (Sunflower; Rate 62 g/ha): 60
Plant response rating, Corn (corn (Zea mays) [11]; [23]): 20
Plant response rating, Corn (corn (Zea mays) [11]; [24]): 20
Plant response rating, Corn (corn (Zea mays) [11]; [25]): 20
Plant response rating, Goosegrass [12, 23]: 80
Plant response rating, Goosegrass [12, 24]: 80
Plant response rating, Goosegrass [12, 25]: 100
Plant response rating, Johnsongrass [13, 23]: 70
Plant response rating, Johnsongrass [13, 24]: 30
Plant response rating, Johnsongrass [13, 25]: 90
Plant response rating, Lambsquarters [14, 23]: 100
Plant response rating, Lambsquarters [14, 24]: 90
Plant response rating, Lambsquarters [14, 25]: 100
Plant response rating, Morningglory [15, 23]: 20
Plant response rating, Morningglory [15, 24]: 0
Plant response rating, Morningglory [15, 25]: 20
Plant response rating, Velvetleaf [16, 23]: 0
Plant response rating, Velvetleaf [16, 24]: 0
Plant response rating, Velvetleaf [16, 25]: 0
Plant response rating, Nutsedge [17, 23]: 50
Plant response rating, Nutsedge [17, 24]: 20
Plant response rating, Nutsedge [17, 25]: 60

COc1cc(N2CCC(n3ccc(C(C)(C)C)n3)C2=O)ccc1C (stereo not shown) [Compound 42]
Plant response rating, Surinam grass [1, 19]: 0
Plant response rating, Surinam grass [1, 20]: 0
Plant response rating, Barnyardgrass [2, 19]: 60
Plant response rating, Barnyardgrass [2, 20]: 100
Plant response rating, Cocklebur [3, 19]: 40
Plant response rating, Cocklebur [3, 20]: 60
Plant response rating, Corn (corn (Zea mays) [4]; [19]): 0
Plant response rating, Corn (corn (Zea mays) [4]; [20]): 40
Plant response rating, Crabgrass [5, 19]: 50
Plant response rating, Crabgrass [5, 20]: 80
Plant response rating, Foxtail, Giant [6, 19]: 50
Plant response rating, Foxtail, Giant [6, 20]: 70
Plant response rating, Morningglory [7, 19]: 60
Plant response rating, Morningglory [7, 20]: 100
Plant response rating, Pigweed [8, 19]: 80
Plant response rating, Pigweed [8, 20]: 100
Plant response rating, Velvetleaf [9, 19]: 50
Plant response rating, Velvetleaf [9, 20]: 80
Plant response rating, Wheat [10, 19]: 0
Plant response rating, Wheat [10, 20]: 0
Plant response rating, Wild Oat (wild oat (Avena fatua); [19]): 0
Plant response rating, Wild Oat (wild oat (Avena fatua); [20]): 40
Plant response rating, Nightshade (Nightshade; Rate 31 g/ha, scale 0 to 100): 0
Plant response rating, Nightshade (Nightshade; [21]): 0
Plant response rating, Nightshade (Nightshade; [22]): 100
Plant response rating, Corn (corn (Zea mays) [11]; [23]): 20
Plant response rating, Corn (corn (Zea mays) [11]; [24]): 0
Plant response rating, Corn (corn (Zea mays) [11]; [25]): 40
Plant response rating, Lambsquarters [14, 23]: 100
Plant response rating, Lambsquarters [14, 24]: 20
Plant response rating, Lambsquarters [14, 25]: 100

CC(C)(C)c1ccn(C2CCN(c3cccc([S+]([O-])C(F)(F)F)c3)C2=O)n1 (stereo not shown) [Compound 101]
Plant response rating, Surinam grass [1, 19]: 0
Plant response rating, Surinam grass [1, 20]: 0
Plant response rating, Barnyardgrass [2, 19]: 0
Plant response rating, Barnyardgrass [2, 20]: 0
Plant response rating, Corn (corn (Zea mays) [4]; [19]): 0
Plant response rating, Corn (corn (Zea mays) [4]; [20]): 0
Plant response rating, Crabgrass [5, 19]: 0
Plant response rating, Crabgrass [5, 20]: 0
Plant response rating, Foxtail, Giant [6, 19]: 0
Plant response rating, Foxtail, Giant [6, 20]: 0
Plant response rating, Morningglory [7, 20]: 0
Plant response rating, Pigweed [8, 20]: 0
Plant response rating, Velvetleaf [9, 20]: 0
Plant response rating, Wheat [10, 20]: 0
Plant response rating, Wild Oat (wild oat (Avena fatua); [20]): 0
Plant response rating, Nightshade (Nightshade; Rate 31 g/ha, scale 0 to 100): 0
Plant response rating, Nightshade (Nightshade; Rate 62 g/ha, scale 0 to 100): 0
Plant response rating, Nightshade (Nightshade; Rate 125 g/ha; scale 0 to 100, 0 no effect, 100 complete control): 90
Plant response rating, Nightshade (Nightshade; Rate 250 g/ha, scale 0 to 100, 0 no effect, 100 complete control): 100
Plant response rating, Sunflower (Sunflower; Rate 125 g/ha): 0
Plant response rating, Ragweed, Common [18, 22]: 100
Plant response rating, Ragweed, Common [18, 24]: 0
Plant response rating, Ragweed, Common [18, 26]: 0
Plant response rating, Ragweed, Common [18, 27]: 100
Plant response rating, Corn (corn (Zea mays) [11]; [22]): 0
Plant response rating, Corn (corn (Zea mays) [11]; [24]): 0
Plant response rating, Corn (corn (Zea mays) [11]; [26]): 0
Plant response rating, Corn (corn (Zea mays) [11]; [27]): 60
Plant response rating, Goosegrass [12, 22]: 100
Plant response rating, Goosegrass [12, 24]: 10
Plant response rating, Goosegrass [12, 26]: 100
Plant response rating, Goosegrass [12, 27]: 100
Plant response rating, Johnsongrass [13, 22]: 40
Plant response rating, Johnsongrass [13, 24]: 0
Plant response rating, Johnsongrass [13, 26]: 10
Plant response rating, Johnsongrass [13, 27]: 90
Plant response rating, Lambsquarters [14, 22]: 100
Plant response rating, Lambsquarters [14, 24]: 0
Plant response rating, Lambsquarters [14, 26]: 0
Plant response rating, Lambsquarters [14, 27]: 100
Plant response rating, Morningglory [15, 22]: 0
Plant response rating, Morningglory [15, 24]: 0
Plant response rating, Morningglory [15, 26]: 0
Plant response rating, Morningglory [15, 27]: 100
Plant response rating, Velvetleaf [16, 22]: 50
Plant response rating, Velvetleaf [16, 24]: 20
Plant response rating, Velvetleaf [16, 26]: 20
Plant response rating, Velvetleaf [16, 27]: 90
Plant response rating, Nutsedge [17, 22]: 0
Plant response rating, Nutsedge [17, 24]: 0
Plant response rating, Nutsedge [17, 26]: 0
Plant response rating, Nutsedge [17, 27]: 0
